Measured values published in patent US20260315468A1, “PHARMACEUTICAL COMPOSITION AND USE THEREOF” (SHANGHAI ALLIST PHARMACEUTICAL CO., LTD., priority 2022, published 2026).

Legend:
Assay in all cases: Anti-proliferation, CellTiter-Glo Luminescent Cell Viability Assay
Format in all cases: cell-based
Ba/F3 EGFR-E709H = settings: Mus musculus, BaF3, 72 h, 3 days
From the text: (§1) The objective of the test example 1 was to evaluate the anti-proliferation effect of Furmonertinib mesilate on 18 cell lines (Ba/F3 EGFR-G719S, Ba/F3 EGFR-S768I, Ba/F3 EGFR-G724S, Ba/F3 EGFR-L718Q, Ba/F3 EGFR-Del19/G724S, Ba/F3 EGFR-E709H, Ba/F3 EGFR-L747S, Ba/F3 EGFR-E709V, Ba/F3 EGFR-L747V, Ba/F3 EGFR-E709-710>D, Ba/F3 EGFR-E709A, Ba/F3 EGFR-Del19/C797S, Ba/F3 EGFR-L858R/C797S, Ba/F3 EGFR-L747S/G719A, Ba/F3-EGFR-L858R-L718V, Ba/F3-EGFR-L858R-L718Q, Ba/F3-EGFR-E709K-G719A, and Ba/F3 EGFR-L861Q) using standard CellTiter-Glo® Luminescent Cell Viability Assay. Further, AZD9291 was used as control compound.
(§2) Cell culture: Ba/F3 EGFR-G719S, Ba/F3 EGFR-S768I, Ba/F3 EGFR-G724S, Ba/F3 EGFR-L718Q, Ba/F3 EGFR-Del19/G724S, Ba/F3 EGFR-E709H, Ba/F3 EGFR-L747S, Ba/F3 EGFR-E709V, Ba/F3 EGFR-L747V, Ba/F3 EGFR-E709-710>D, Ba/F3 EGFR-E709A, Ba/F3 EGFR-Del19/C797S, Ba/F3 EGFR-L858R/C797S, Ba/F3 EGFR-L747S/G719A, Ba/F3-EGFR-L858R-L718V, Ba/F3-EGFR-L858R-L718Q, Ba/F3-EGFR-E709K-G719A, and Ba/F3 EGFR-L861Q engineered cells were obtained from Kyinno, and maintained at 37° C. with 5% CO2, in the RPMI1640 media supplemented with 10% fetal bovine serum.
(§3) The cells during the logarithmic growth period were harvested and counted by using blood counting chamber. The cell viability was over 90% which was determined by trypan blue assay. The cell concentration was adjusted with culture medium. 90 μl cell suspensions was added to two 96-well plates to obtain the final cell density of 3000 cells per well. The plates were incubated in humidified incubator at 37° C. with 5% CO2.
(§4) The solution of tested compounds (Furmonertinib mesilate and AZD9291) was diluted 1000-fold with DMSO. Then, said DMSO solution was diluted 100-fold with PBS (Phosphate Buffered Saline) to obtain 10× working solution. And 10× reference control solution was prepared by Phosphate Buffered Saline (PBS). 10 μl working solution (10×) was dispensed to each well (triplicate for each concentration). (The top concentration was 3160 nM, 3.16-fold dilution and 10 different concentrations. The final concentration of DMSO in culture medium was 0.1% [v/v]). The plate was cultured for 3 days.
(§5) On Day 3, CellTiter-Glo® reagent (a luciferase ATP bioluminescence detection reagent) was thawed, and then the cell plate was equilibrated at room temperature for approximately 30 minutes. 100 μl CellTiter-Glo® Reagent which was equal to the volume of cell culture medium present in each well was added. The obtained content was mixed for 5 minutes on an orbital shaker to induce cell lysis. The cell plate was incubated at room temperature for 20 minutes to stabilize luminescent signal. The luminescence was recorded by using Multi-mode Microplate Reader.
(§6) [formula] • blank control: medium control; • vehicle control: culture medium with 0.1% DMSO
(§7) The graphical curves were fitted using a nonlinear regression model with a sigmoidal dose response.

Ba/F3 EGFR-E709-710 > D = settings: Mus musculus, BaF3, 72 h, 3 days
From the text: as §1, §2, §3, §4, §5, §6, §7

Ba/F3 EGFR-E709A = settings: Mus musculus, BaF3, 72 h, 3 days
From the text: as §1, §2, §3, §4, §5, §6, §7

Ba/F3 EGFR-L747S/G719A = settings: Mus musculus, BaF3, 72 h, 3 days
From the text: as §1, §2, §3, §4, §5, §6, §7

Ba/F3 EGFR-E709V = settings: Mus musculus, BaF3, 72 h, 3 days
From the text: as §1, §2, §3, §4, §5, §6, §7

Ba/F3 EGFR-L861Q = settings: Mus musculus, BaF3, 72 h, 3 days
From the text: as §1, §2, §3, §4, §5, §6, §7

Ba/F3-EGFR-L858R-L718Q = settings: 72 h, 3 days
From the text: as §1, §2, §3, §4, §5, §6, §7

Ba/F3 EGFR-L747S = settings: Mus musculus, BaF3, 72 h, 3 days
From the text: as §1, §2, §3, §4, §5, §6, §7

Ba/F3 EGFR-L747V = settings: Mus musculus, BaF3, 72 h, 3 days
From the text: as §1, §2, §3, §4, §5, §6, §7

Ba/F3 EGFR-L858R/C797S = settings: Mus musculus, BaF3, 72 h, 3 days
From the text: as §1, §2, §3, §4, §5, §6, §7

Ba/F3 EGFR-S768I = settings: Mus musculus, BaF3, 72 h, 3 days
From the text: as §1, §2, §3, §4, §5, §6, §7

Ba/F3-EGFR-E709K-G719A = settings: 72 h, 3 days
From the text: as §1, §2, §3, §4, §5, §6, §7

Ba/F3 EGFR-L718Q = settings: Mus musculus, BaF3, 72 h, 3 days
From the text: as §1, §2, §3, §4, §5, §6, §7

Ba/F3 EGFR-Del19/G724S = settings: Mus musculus, BaF3, 72 h, 3 days
From the text: as §1, §2, §3, §4, §5, §6, §7

Ba/F3 EGFR-Del19/C797S = settings: Mus musculus, BaF3, 72 h, 3 days
From the text: as §1, §2, §3, §4, §5, §6, §7

Ba/F3-EGFR-L858R-L718V = settings: 72 h, 3 days
From the text: as §1, §2, §3, §4, §5, §6, §7

Ba/F3 EGFR-G719S = settings: Mus musculus, BaF3, 72 h, 3 days
From the text: as §1, §2, §3, §4, §5, §6, §7

Ba/F3 EGFR-G724S = settings: Mus musculus, BaF3, 72 h, 3 days
From the text: as §1, §2, §3, §4, §5, §6, §7

## C=CC(=O)Nc1cc(Nc2nccc(-c3cn(C)c4ccccc34)n2)c(OC)cc1N(C)CCN(C)C [AZD9291, reference compound]
Ba/F3 EGFR-E709H
  IC50: 124 nM
Ba/F3 EGFR-E709-710 > D
  IC50: 197 nM
Ba/F3 EGFR-E709A
  IC50: 64.2 nM
Ba/F3 EGFR-L747S/G719A
  IC50: 92.1 nM
Ba/F3 EGFR-E709V
  IC50: 47.6 nM
Ba/F3 EGFR-L861Q
  IC50: 24.6 nM
Ba/F3-EGFR-L858R-L718Q
  IC50: 942 nM
Ba/F3 EGFR-L747S
  IC50: 37.8 nM
Ba/F3 EGFR-L747V
  IC50: 53.7 nM
Ba/F3 EGFR-L858R/C797S
  IC50: 2190 nM
Ba/F3 EGFR-S768I
  IC50: 85.5 nM
Ba/F3-EGFR-E709K-G719A
  IC50: 164 nM
Ba/F3 EGFR-L718Q
  IC50: > 1000 nM
Ba/F3 EGFR-Del19/G724S
  IC50: 16.3 nM
Ba/F3 EGFR-Del19/C797S
  IC50: 1980 nM
Ba/F3-EGFR-L858R-L718V
  IC50: 172 nM
Ba/F3 EGFR-G719S
  IC50: 55.4 nM
Ba/F3 EGFR-G724S
  IC50: 73 nM
